In patent US20220220100A1 (SOLUTIA CANADA INC., priority 2019, published 2022):

Tests used:
Assay type in all cases: physicochemical
[1] = UV/Vis absorbance at 400 nm and Yellowness Index of the ring-open isomer; conditions: for Abs @ 400 nm, RO (Absorption of ring-open isomer at 400 nm): 2×10^−5 M solution, 1 cm pathlength cuvette
Source text: In addition to the above, chromophores should have acceptable colour for both the ring-opened and ring-closed isomers. For example, the ring-open isomer of the chromophore should have a Yellowness Index (YI) of less than about 10 and an absorbance at 400 nm, as measured for a 2×10^−5 M solution in a 1 cm pathlength cuvette. For the ring-closed isomer of the chromophore, the lambda max should be between about 475 nm and 700 nm, tunable according to desired colour and number of chromophores in the composition.
(§1) UV/Vis spectra were obtained using an OceanOptics™ Spectrophotometer. A 2×10^−5 M solution of compound in solvent was prepared, and photofaded using visible light until absorption in the visible region of the spectrum stabilized. The sample was then irradiated with simulated sunlight (QSUN SS-150 Solar Simulator with xenon arc lamp) until the absorption spectrum stabilized. To obtain PSS in the presence of a UV blocking film, a second sample was prepared and irradiated as described, with a UV blocking film inserted in the light path when irradiating.

[2] = Photostationary state (PSS) and lambda max under simulated sunlight (solar simulator); conditions: for PSS (SS): absorbance at photostationary state, simulated sunlight (solar simulator), 2×10^−5 M solution; for λmax (nm): peak in the visible range, ring-closed (dark) state
Source text: The term “photostationary state” (PSS) refers to an equilibrium state of a compound or material where the rate of the ring closing (forward) reaction is equal to the rate of the ring-opening reaction, when irradiated with light in a given region of the spectrum. In other words, the ratio of the ring-open isomer to the ring-closed isomer is at an equilibrium. PSS may be expressed with reference to a light source, or with reference to a type of light, for example, QUV, Xenon-arc lamp, Q-SUN, natural or filtered sunlight, UV, VIS, IR, NIR, full spectrum or the like, or with reference to a particular wavelength or range of wavelengths, or in the presence or absence of a filter. Some ring-open and ring-closed isomers may undergo isomerization from one to the other in response to different wavelengths of light. If a wavelength of light is used where only one of the isomers absorbs, irradiation results in complete isomerization to the other form. 254 nm, 313 nm or 365 nm light are commonly used in studies of UV-absorbing isomers, but this may not be representative of the PSS under other light conditions that include the visible spectrum such as natural or simulated sunlight (“full spectrum” light) and/or with filters that block a portion of the UV component of the light. For example, in a ring-closed (dark) state, the magnitude of the maximum absorbance in the visible range may change with the light source (FIG. 1). The wavelength at this peak in the visible range may be referred to as lambda max, or λmax. […] When full spectrum light from a solar simulator (Xenon arc lamp) is used as a light source (line B), a balance is achieved between the ring-closed (dark) state induced by the UV component, and a ring-open (faded) state induced by the visible component of the light. Inclusion of a UV blocking layer in the light path (line A) may reduce the UV component of the light, and the ring-opening reaction induced by the visible light component becomes more prominent. […] Where desired, the ratio of ring-open and ring-closed isomers at a PSS may be quantified by ^1H NMR spectroscopy, such as described in U.S. Pat. No. 7,777,055. In various embodiments, compounds with an increased absorbance at a photostationary state (PSS), or increased contrast ratio, are an improvement over other diarylethene compounds. A compound with a greater absorbance in the visible range can be used in lesser quantities in a formulation or material to achieve a desired contrast ratio, whereas a compound with a lower absorbance at a PSS may need a higher concentration to achieve a desired contrast ratio.
Photostationary State (PSS)
as §1

[3] = Oxidation potential of ring-closed and ring-open isomers; conditions: no unit printed in table (V relative to Ag/AgCl)
Source text: In various embodiments, at a PSS, some of the chromophore will be in the ring-closed isomer, with a small, but non-zero portion of ring-open isomer. The oxidation potential of a ring-open isomer may be more anodic than the oxidation potential of a ring-closed isomer. Exposure to a potential that is too far beyond what is necessary to oxidize the ring-closed isomer may result in oxidation of the ring-open isomer, which may be irreversible and result in electrochemically-induced degradation of the chromophore.
Thus, in various embodiments, an anodic chromophore may have an oxidation potential of from about 0.4 V to 1.2 V for the ring-closed isomer and about 1.0 V to 2.5 V for the ring-open isomer relative to an Ag/AgCl reference electrode. In various embodiments, the oxidation potential for the ring-open isomer is about 250 mV more anodic than the oxidation potential for the ring-closed isomer. For example, the oxidation potential may be about 260 mV, about 280 mV, about 300 mV, about 320 mV, about 340 mV, about 360 mV, about 380 mV, about 400 mV, about 420 mV, about 440 mV, or about 460 mV more anodic than the oxidation potential for the ring-closed isomer.

[4] = Photostability: xenon arc weathering of chromophore solutions, LCMS analysis; conditions: for Ketone (%) / Minus-2HF (%) / Minus-HF (%) / Sulfone (%) / Chromophore Remaining (%): xenon arc, 82° C. bp; for Ketone (%) / Minus-2HF (%) / Minus-HF (%) / Sulfone (%): linearly interpolated to 0.5 MJ/m2 @ 340 nm; for Chromophore Remaining (%): linearly interpolated to 0.5 MJ/m2 @ 340 nm of exposure energy; for Photostability (in words): weathering experiments
Source text: Photostability (resistance to light-induced degradation) may be measured by the amount of time required for the compound, or a material comprising the compound, to degrade to a certain point under light exposure. The light exposure may be constant, or cyclic. The light transmittance or absorbance of the compound, or material comprising the compound, may be determined at both a light state and dark state prior to testing, to determine a contrast ratio. During testing, the contrast ratio may be monitored (periodically or continually), the compound or material may be determined to have failed when the contrast ratio falls outside, or below, a selected range, or when the contrast ratio decreases to a percentage of the original contrast ratio. Photostability may also be expressed with reference to a light source or with reference to a type of light.
Chromophore solutions in Rhodiasolv IRIS were prepared at 1 to 10 wt % loading. Solutions were prepared in a glovebox by charging the chromophore and Rhodiasolv IRIS to a trace-clean vial, and the solution was stirred on a hotplate at 90° C. for 2-24 hours. After cooling, the chromophore solution was injected into glass weathering cells and the fill and vent ports were sealed with a thin disc of Kalrez (FFKM Perfluorinated Elastomer) and secured with a clamp and set-screw. The weathering cells were filled and sealed inside the glove box.
Measurement of Photostability
A. Fabrication of cuvettes. Two holes of 0.8 mm diameter were drilled at opposite ends in a 75×50 mm piece of float glass using a diamond drill bit in a rotary tool. The drilled glass and a matching piece of undrilled glass were then cleaned using hot soapy water, rinsed with deionized water and acetone and then dried with compressed air. A 5 mm wide frame was cut from a sheet of 50 μm thickness EVAL EF-F using a laser engraver. The EVAL frame was placed around the perimeter of one sheet of glass and sandwiched by the second sheet of glass. The glass-EVAL-glass sandwich was secured with tape and heated under vacuum (10 mmHg) for 30 minutes at 170° C. in a vacuum bag. After cooling, a third piece of float glass was PVB laminated to the non-drilled side of the sealed glass cells using Trosifol UV Extra Protect B150 PVB (400 nm UV cut-off).
B. Xenon arc weathering protocol. Devices were exposed to simulated weathering conditions inside a Xe-3-HS xenon arc chamber, manufactured by Q-labs Inc. The samples were weathered according to the following table. The devices were exposed to these conditions continuously, with no dark or spray cycles included.
C. Analysis of weathered chromophore solutions by LCMS. The set-screws, metal clamps and Kalrez plugs were removed from the cuvette to expose the fill port. A 5 mL plastic syringe (NORM-JECT®) equipped with a tip (Precision Tips, 0.010″ RED) was inserted into one fill port and the chromophore solution was withdrawn from the cuvette. The chromophore solution was then injected into a 2 mL amber vial (part number 5182-0716, Agilent Technology) prefilled with 1.5 mL LC-MS grade acetonitrile (HiPerSolbe CHROMANORM Acetonitrile, VWR BDH Chemicals). An aliquot of the acetonitrile solution (2 μL) was injected into the LC-MS system (Agilent Infinity 1290 LC-MS system with diode array detector) through an autosampler mechanism. Species in the injected sample were separated through a reverse phase column (Zorbax SB-C18, 2.1×50 mm, 1.8 μm, operated at 40° C.), using a mixture of acetonitrile (mixed with 1% formic acid v/v ratio), methanol (HiPerSolbe CHROMANORM Methanol, VWR BDH Chemicals) and water (HiPerSolbe CHROMANORM Water, VWR BDH Chemicals) as mobile phase.

[5] = 1 wt %, interpolated to 0.5 MJ/m^2 of energy exposure at 340 nm

COc1cc2oc(-c3ccc(C(C)(C)C)cc3)c(C3=C(c4cc(-c5cccs5)sc4-c4cccs4)C(F)(F)C(F)(F)C3(F)F)c2cc1OC [Chromophore S193, 3-(2-([2,2′:5′,2″-terthiophen]-3′-yl)-3,3,4,4,5,5-hexafluorocyclopent-1-en-1-yl)-2-(4-(tert-butyl)phenyl)-5,6-dimethoxybenzofuran]
YI (Yellowness Index) [1]: 3.59 | Abs @ 400 nm, RO (Absorption of ring-open isomer at 400 nm) [1]: 0.097 | PSS (SS) [2]: 0.269 | λmax (nm) [2]: 587 nm | RC [O] (oxidation potential of ring-closed isomer) ([3]; ring-closed isomer): 1.02 | RO [O] (oxidation potential of ring-open isomer) ([3]; ring-open isomer): 1.41 | Ketone (%) ([4]; 3 wt % in Rhodiasolv IRIS): 0.0% | Minus-2HF (%) ([4]; 3 wt % in Rhodiasolv IRIS): 2.1% | Minus-HF (%) ([4]; 3 wt % in Rhodiasolv IRIS): 1.4% | Sulfone (%) ([4]; 3 wt % in Rhodiasolv IRIS): 0.0% | Chromophore Remaining (%) ([4]; 3 wt % in Rhodiasolv IRIS): 92.7% | Ratio of chromophore remaining relative to S340 ([4]; 3 wt %, interpolated to 0.5 MJ/m^2 of energy exposure at 340 nm): 1.02 | Photostability (in words) [4]: high photostability

COc1cc2oc(-c3ccc(C(C)(C)C)cc3)c(C3=C(c4cc(-c5cc6c(s5)C(C)(C)CC6(C)C)sc4-c4cc5c(s4)C(C)(C)CC5(C)C)C(F)(F)C(F)(F)C3(F)F)c2cc1OC [Chromophore S404]
YI (Yellowness Index) [1]: 11.1 | Abs @ 400 nm, RO (Absorption of ring-open isomer at 400 nm) [1]: 0.182 | PSS (SS) [2]: 0.429 | λmax (nm) [2]: 599 nm | Ketone (%) ([4]; 1 wt % in Rhodiasolv IRIS): 0.0% | Minus-2HF (%) ([4]; 1 wt % in Rhodiasolv IRIS): 0.0% | Minus-HF (%) ([4]; 1 wt % in Rhodiasolv IRIS): 0.0% | Sulfone (%) ([4]; 1 wt % in Rhodiasolv IRIS): 0.0% | Chromophore Remaining (%) ([4]; 1 wt % in Rhodiasolv IRIS): 100.0% | Ratio of chromophore remaining relative to S340 [4, 5]: 1.10 | Sum of degradation product percentages relative to the sum of degradation product percentages for S340 [4, 5]: 0.00 | Photostability (in words) [4]: high photostability
